Data as given in US11384078B2, “5,6-fused-bicyclic compounds and compositions for the treatment of parasitic diseases” (NOVARTIS AG, priority 2017, dated 2022).
pEC50: −log10 of the molar value.

Legend:
Assay type in all cases: cell-based
[1] = system: Leishmania donovani axenic amastigote; test: In vitro assay for growth inhibition of Leishmania donovani axenic amastigote (Cell TiterGlo luminescence); details: Leishmania donovani, L. donovani axenic amastigotes in vitro; read-out: L. donovani amastigotes EC50
Summary of the method: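 Compound-treated wells received 9600 axenic amastigotes in RPMI 1640-based medium at pH 5.5 (37 °C, 5% CO2). Growth measured as ATP luminescence (CellTiter-Glo) after 2-day incubation; DMSO and reference compounds served as controls.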

[2] = system: L. donovani HU3 strain in mouse peritoneal macrophages; test: Assay for inhibition of parasitemia of Leishmania donovani in mouse macrophages (SYBR Green nuclei count, high-content imaging); details: Leishmania donovani, Peritoneal macrophage, L. donovani in mouse peritoneal macrophages; read-out: L. donovani in Mouse Macrophages EC50
Summary of the method: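 Parasite numbers were counted from SYBR Green-stained nuclei imaged by high-content microscopy after paraformaldehyde fixation and Triton permeabilization. Before this, compound was applied for 5 days at 37° C to BALB/c peritoneal macrophages (2×10^4/well) that had been exposed 24 h to 4×10^5 L. donovani HU3 amastigotes harvested from infected mouse spleens.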

[3] = system: Trypanosoma cruzi amastigotes cultured in 3T3 fibroblast cells; test: Assay for growth inhibition of kinetoplastid parasite Trypanosoma cruzi (beta-galactosidase Tulahuen strain, CPRG readout); details: Trypanosoma cruzi, Fibroblast, T. cruzi amastigotes in 3T3 fibroblast cells; read-out: Buckner infectious T. cruzi EC50
Summary of the method: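 3T3 fibroblasts (1,000 cells/well) plated overnight, treated with compound in DMSO, then infected with 10,000 Lac-Z-expressing Tulahuen trypomastigotes. After 6 days, 0.6 mM CPRG with 0.6% NP-40 added for 2 h at room temperature; absorbance gives relative intracellular amastigote numbers. Benznidazole and nifurtimox serve as positive controls.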

[4] = system: Trypanosoma brucei brucei (Lister 427) strain; test: Assay for growth inhibition against Trypanosoma brucei brucei (Cell TiterGlo ATP luminescence); details: Trypanosoma brucei, T. brucei brucei (Lister 427); read-out: T. Brucei (HAT) EC50
Summary of the method: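 Growth read-out is cellular ATP by CellTiter-Glo luminescence, measured 30 min after reagent addition, following 2-day incubation at 37 °C in CO2. Parasites (10,000/mL, HMI-9 plus 10% FBS and 10% serum plus) faced 10 threefold dilutions in duplicate; IC50 taken as 50% growth inhibition versus untreated.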

SMILES | pEC50 [1] | pEC50 [2] | pEC50 [3] | pEC50 [4]
O=C(Nc1ccc(F)c(-n2cc3cc(C4CCN(Cc5ccc(F)cc5)CC4)cnc3n2)c1)N1CC(F)C1 [Compound 305, 3-fluoro-N-[4-fluoro-3-(5-{1-[(4-fluorophenyl)methyl]piperidin-4-yl]-2H-pyrazolo[3,4-b]pyridin-2-yl)phenyl]azetidine-1-carboxamide] | 6.96 | 8.52 | 9.00 | 8.30
[2H]C([2H])([2H])N(c1cnc2nn(-c3cc(NC(=O)N4CCC4)ccc3F)cc2c1)C([2H])([2H])[2H] [Compound 306, N-(3-{5-[bis(^2H3)methylamino]-2H-pyrazolo[3,4-b]pyridin-2-yl}-4-fluorophenyl)azetidine-1-carboxamide] | 7.05 | 8.40 | 8.70 | 8.30
[2H]C([2H])([2H])N(c1cnc2nn(-c3cc(NC(=O)N4CC(F)(F)C4)ccc3F)cc2c1)C([2H])([2H])[2H] [Compound 307, N-(3-{5-[bis(^2H3)methylamino]-2H-pyrazolo[3,4-b]pyridin-2-yl}-4-fluorophenyl)-3,3-difluoroazetidine-1-carboxamide] | 6.55 | 7.92 | 7.80 | 8.30
[2H]C([2H])([2H])N(c1cnc2nn(-c3cc(NC(=O)N4CC[C@@H](F)C4)ccc3F)cc2c1)C([2H])([2H])[2H] [Compound 308, (3R)-N-(3-{5-[bis(^2H3)methylamino]-2H-pyrazolo[3,4-b]pyridin-2-yl}-4-fluorophenyl)-3-fluoropyrrolidine-1-carboxamide] | 6.25 | 8.70 | 8.40 | 8.30
O=C(Nc1ccc(F)c(-n2cc3cc(-c4ncccc4F)cnc3n2)c1)N1CC(F)(F)C1 [Compound 309, 3,3-difluoro-N-{4-fluoro-3-[5-(3-fluoropyridin-2-yl)-2H-pyrazolo[3,4-b]pyridin-2-yl]phenyl}azetidine-1-carboxamide] | 9.00 | 8.70 | 9.00 | 8.30
O=C(Nc1ccc(F)c(-n2cc3cc(-c4ncccc4Cl)cnc3n2)c1)N1CC(F)(F)C1 [Compound 310, N-{3-[5-(3-chloropyridin-2-yl)-2H-pyrazolo[3,4-b]pyridin-2-yl]-4-fluorophenyl}-3,3-difluoroazetidine-1-carboxamide] | 8.70 | 8.70 | 9.00 | 8.30
O=C(Nc1ccc(F)c(-n2cc3cccnc3n2)c1)N1CC(F)C1 [Compound 311, 3-fluoro-N-(4-fluoro-3-(2H-pyrazolo[3,4-b]pyridin-2-yl)phenyl)azetidine-1-carboxamide] | 7.24 | 7.48 | 7.51 | 7.57
Cc1nccnc1-c1cnc2nn(-c3cc(NC(=O)N4CC(F)C4)ccc3F)cc2c1 [Compound 312, 3-fluoro-N-{4-fluoro-3-[5-(3-methylpyrazin-2-yl)-2H-pyrazolo[3,4-b]pyridin-2-yl]phenyl}azetidine-1-carboxamide] | 8.52 | 8.70 | 8.40 | 7.48
O=C(Nc1ccc(F)c(-n2cc3cc(-c4ncccc4F)cnc3n2)c1)N1CCC1 [Compound 313, N-{4-fluoro-3-[5-(3-fluoropyridin-2-yl)-2H-pyrazolo[3,4-b]pyridin-2-yl]phenyl}azetidine-1-carboxamide] | 9.00 | 8.70 | 9.00 | 8.30
O=C(Nc1ccc(F)c(-n2cc3cc(-c4ncccc4Cl)cnc3n2)c1)N1CCC1 [Compound 315, N-{3-[5-(3-chloropyridin-2-yl)-2H-pyrazolo[3,4-b]pyridin-2-yl]-4-fluorophenyl}azetidine-1-carboxamide] | 8.70 | 8.70 | 9.00 | 8.30
O=C(Nc1ccc(F)c(-n2cc3cc(-c4ncccc4Cl)cnc3n2)c1)N1CC[C@@H](F)C1 [Compound 316, (3R)-N-{3-[5-(3-chloropyridin-2-yl)-2H-pyrazolo[3,4-b]pyridin-2-yl]-4-fluorophenyl}-3-fluoropyrrolidine-1-carboxamide] | 8.70 | 8.70 | 9.00 | 8.30
O=C(Nc1ccc(F)c(-n2cc3cc(-c4ncccc4F)cnc3n2)c1)N1CC[C@@H](F)C1 [Compound 317, (3R)-3-fluoro-N-{4-fluoro-3-[5-(3-fluoropyridin-2-yl)-2H-pyrazolo[3,4-b]pyridin-2-yl]phenyl}pyrrolidine-1-carboxamide] | 8.70 | 8.70 | 9.00 | 8.30
Cc1cnc2nn(-c3cc(NC(=O)N4CC(F)C4)ccc3F)cc2c1 [Compound 318, 3-fluoro-N-(4-fluoro-3-{5-methyl-2H-pyrazolo[3,4-b]pyridin-2-yl}phenyl)azetidine-1-carboxamide] | 7.57 | 7.49 | 7.89 | 7.82
O=C(Nc1ccc(F)c(-n2cc3cc(-n4ccnc4)cnc3n2)c1)N1CC(F)C1 [Compound 323, 3-fluoro-N-{4-fluoro-3-[5-(1H-imidazol-1-yl)-2H-pyrazolo[3,4-b]pyridin-2-yl]phenyl}azetidine-1-carboxamide] | 7.92 | 6.95 | 7.21 | 7.82
O=C(Nc1ccc(F)c(-n2cc3cc(C(F)(F)F)cnc3n2)c1)N1CC(F)(F)C1 [Compound 324, 3,3-difluoro-N-{4-fluoro-3-[5-(trifluoromethyl)-2H-pyrazolo[3,4-b]pyridin-2-yl]phenyl}azetidine-1-carboxamide] | 7.82 | 7.35 | 7.80 | 7.43
O=C(Nc1ccc(F)c(-n2cc3cc(-c4cnn(C5CC5)c4)cnc3n2)c1)N1CC(F)C1 [Compound 325, N-{3-[5-(1-cyclopropyl-1H-pyrazol-4-yl)-2H-pyrazolo[3,4-b]pyridin-2-yl]-4-fluorophenyl}-3-fluoroazetidine-1-carboxamide] | 8.10 | 7.30 | 7.44 | 7.96
O=C(Nc1ccc(F)c(-n2cc3cc(N4CC(F)(F)C4)cnc3n2)c1)C1CC1 [Compound 326, N-{3-[5-(3,3-difluoroazetidin-1-yl)-2H-pyrazolo[3,4-b]pyridin-2-yl]-4-fluorophenyl}cyclopropanecarboxamide] | 6.72 | 6.12 | 6.92 | 6.63
O=C(Nc1ccc(F)c(-n2cc3cc(N4CC(F)C4)cnc3n2)c1)C1CC1 [Compound 327, N-{4-fluoro-3-[5-(3-fluoroazetidin-1-yl)-2H-pyrazolo[3,4-b]pyridin-2-yl]phenyl}cyclopropanecarboxamide] | 6.45 | 5.92 | 6.83 | 6.63
Cc1cn(-c2cnc3nn(-c4cc(NC(=O)N5CC(F)C5)ccc4F)cc3c2)cn1 [Compound 328, 3-fluoro-N-{4-fluoro-3-[5-(4-methyl-1H-imidazol-1-yl)-2H-pyrazolo[3,4-b]pyridin-2-yl]phenyl}azetidine-1-carboxamide] | 7.64 | 6.80 | 7.08 | 7.77
